Laboratory results from US20230033195A1, “METHODS AND COMPOSITIONS FOR IMPROVING COGNITIVE FUNCTION” (THE JOHNS HOPKINS UNIVERSITY, priority 2011, published 2023).

Tested on: aged-impaired (AI) rats
Test: eight-arm Radial Arm Maze (RAM) task with one-hour delay, spatial memory retention
Format: in vivo, rat
Settings: for average no. of errors ± SEM: one-hour delay, vehicle 2.00 ± 0.42
Procedure: FIG. 3 depicts the effects of administering levetiracetam on the spatial memory retention of ten aged-impaired rats (AI) in an eight-arm Radial Arm Maze (RAM) test. Six treatment conditions were employed: vehicle control, levetiracetam (1.25 mg/kg), levetiracetam (2.5 mg/kg), levetiracetam (5 mg/kg), levetiracetam (10 mg/kg) and levetiracetam (20 mg/kg). In the RAM task used, there was a one-hour delay between presentation of a subset of arms (5 arms available and 3 arms blocked) and completion of the eight-arm win-shift task (eight arms available). Rats were pre-treated 30 - 40 minutes before daily trials with a one-time drug/control treatment. The number of errors made by the rats after the delay was used as a measure of spatial memory retention. Errors were defined as instances when rats entered an arm from which food had already been retrieved in the pre-delay component of the trial or when rats re-visited an arm in the post-delay session that had already been visited. Paired t-tests were used to compare the number of errors between different doses of levetiracetam and vehicle control.
The effects of levetiracetam on the spatial memory retention of aged-impaired (AI) rats were assessed in a Radial Arm Maze (RAM) behavioral task using vehicle control and five different dosage levels of levetiracetam (1.25 mg/kg/day, 2.5 mg/kg/day, 5 mg/kg/day, 10 mg/kg/day and 20 mg/kg/day). RAM behavioral tasks were preformed on ten AI rats. All six treatment conditions were tested on all ten rats, as described above for the MWM test.
The RAM apparatus used consisted of eight equidistantly-spaced arms. An elevated maze arm (7 cm width x 75 cm length) projected from each facet of an octagonal center platform (30 cm diameter, 51.5 cm height). Clear side walls on the arms were 10 cm high and were angled at 65° to form a trough. A food well (4 cm diameter, 2 cm deep) was located at the distal end of each arm. Froot Loops™ (Kellogg Company) were used as rewards. Blocks constructed of Plexiglas™ (30 cm height x 12 cm width) could be positioned to prevent entry to any arm. Numerous extra maze cues surrounding the apparatus were also provided.
The AI rats were initially subjected to a pre-training test (Chappell et al. Neuropharmacology 37: 481-487, 1998). The pre-training test consisted of a habituation phase (4 days), a training phase on the standard win-shift task (18 days) and another training phase (14 days) in which a brief delay was imposed between presentation of a subset of arms designated by the experimenter (e.g., 5 arms available and 3 arms blocked) and completion of the eight-arm win-shift task (i.e., with all eight arms available).
In the habituation phase, rats were familiarized to the maze for an 8-minute session on four consecutive days. In each of these sessions food rewards were scattered on the RAM, initially on the center platform and arms and then progressively confined to the arms. After this habituation phase, a standard training protocol was used, in which a food pellet was located at the end of each arm. Rats received one trial each day for 18 days. Each daily trial terminated when all eight food pellets had been obtained or when either 16 choices were made or 15 minutes had elapsed. After completion of this training phase, a second training phase was carried out in which the memory demand was increased by imposing a brief delay during the trial. At the beginning of each trial, three arms of the eight-arm maze were blocked. Rats were allowed to obtain food on the five arms to which access was permitted during this initial 'information phase' of the trial. Rats were then removed from the maze for 60 seconds, during which time the barriers on the maze were removed, thus allowing access to all eight arms. Rats were then placed back onto the center platform and allowed to obtain the remaining food rewards during this 'retention test' phase of the trial. The identity and configuration of the blocked arms varied across trials. […]

SMILES: CC[C@@H](C(N)=O)N1CCCC1=O [levetiracetam, (2S)-2-(2-oxopyrrolidin-1-yl) butanamide]
- average no. of errors ± SEM (5 mg/kg/day i.p.): 0.75 ± 0.32
- memory performance relative to vehicle control (5 mg/kg/day, t(9) = 2.18, p = 0.057): significantly improved memory performance
- average no. of errors ± SEM (10 mg/kg/day i.p.): 0.80 ± 0.27
- memory performance relative to vehicle control (10 mg/kg/day, t(9) = 2.37, p = 0.042): significantly improved memory performance
- performance of AI rats in the radial maze task (levetiracetam 20 mg/kg): fails to improve the performace
- effective in reducing the number of errors, on its own (levetiracetam i.p. 1.25 mg/kg): not
- effective in reducing the number of errors, on its own (levetiracetam i.p. 2.5 mg/kg): not
- effective in reducing the number of errors, on its own (levetiracetam i.p. 5-10 mg/kg): effective
